Experimental data reported in patent US11840686B2, “Modulation of prekallikrein (PKK) expression” (Ionis Pharmaceuticals, Inc., priority 2013, dated 2023).
Strand notation (5' to 3'): a small letter for the sugar, then the base; units joined by * are phosphorothioate-linked, units joined directly phosphodiester-linked; [ ] holds rarer units or linkages, { } end groups; capitals alone tell only the bases. e = 2'-O-(2-methoxyethyl) (MOE); k = constrained ethyl (cEt); [5mC] = 5-methylcytosine; d = 2'-deoxy (DNA)

Tests used:
[1] = system: human PKK mRNA; test: Dose-dependent antisense inhibition of human PKK in HepaRG cells, 0.11-3.00 uM (Example 6); type: cell-based; conditions: for IC50: 0.11-3.00 μM; for percent inhibition of PKK mRNA, 0.11 μM / percent inhibition of PKK mRNA, 0.33 μM / percent inhibition of PKK mRNA, 1.00 μM / percent inhibition of PKK mRNA, 3.00 μM: electroporation, approx. 16 hours, relative to untreated control cells
Procedure, shortened: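 HepaRG cells were electroporated with antisense oligonucleotide at 0.11, 0.33, 1.00 or 3.00 μM. After about 16 h, PKK mRNA was quantified by qRT-PCR with primer probe set RTS3454 and normalized to total RNA by RIBOGREEN. IC50 was derived from the dose series.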

[2] = system: human PKK mRNA; test: Antisense inhibition of human PKK mRNA in HepaRG cells, 1,000 nM, MOE/deoxy/cEt oligonucleotides (Example 3); type: cell-based; conditions: HepaRG cells, 1,000 nM antisense oligonucleotide
Procedure, shortened: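 HepaRG cells at 20,000 per well electroporated with 1,000 nM 16-mer MOE/cEt/deoxy gapmers (phosphorothioate, 5-methylcytosine). After about 24 h, PKK mRNA measured by qRT-PCR with primer probe set RTS3454, normalized to RIBOGREEN total RNA. Reported as percent inhibition versus untreated cells.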

| Substance | IC50 [1] [nM] | percent inhibition of PKK mRNA, 0.11 μM [1] [%] | percent inhibition of PKK mRNA, 0.33 μM [1] [%] | percent inhibition of PKK mRNA, 1.00 μM [1] [%] | percent inhibition of PKK mRNA, 3.00 μM [1] [%] | % inhibition ([2]; Table 30, human PKK mRNA) [%] | % inhibition ([2]; Table 28, human PKK mRNA) [%] | % inhibition ([2]; Table 29) [%] | % inhibition ([2]; PKK mRNA, Table 31) [%] |
| --- | --- | --- | --- | --- | --- | --- | --- | --- | --- |
| 548425 (antisense eA*eA*k[5mC]*dA*dG*dT*dA*dT*d[5mC]*dA*d[5mC]*dT*dG*kT*k[5mC]*e[5mC]) [compound 548425] | 200 | 41 | 57 | 68 | 80 | 90 | – | – | – |
| 548479 (eA*eG*kG*d[5mC]*d[5mC]*dA*dT*dT*dT*dG*dA*dT*d[5mC]*k[5mC]*kG*eA; antisense) [compound 548479] | 400 | 2 | 52 | 82 | 97 | – | 68 | – | – |
| 548486 (e[5mC]*eG*kT*dG*dG*dT*dT*dA*dG*d[5mC]*d[5mC]*dT*dG*kA*k[5mC]*eA; antisense) [compound 548486] | 400 | 20 | 48 | 77 | 92 | – | 68 | – | – |
| 548521 (antisense e[5mC]*eA*kG*d[5mC]*dT*d[5mC]*d[5mC]*d[5mC]*dT*dT*dA*d[5mC]*dT*kA*kG*eG) [compound 548521] | > 3000 | 21 | 0 | 3 | 1 | – | 61 | – | – |
| 548547 (antisense eG*eT*kG*d[5mC]*dG*dA*dT*dT*dA*dA*dG*d[5mC]*d[5mC]*k[5mC]*k[5mC]*eA) [compound 548547] | 400 | 30 | 41 | 76 | 90 | – | – | 86 | – |
| 548557 (antisense eG*eT*kT*dA*d[5mC]*dT*d[5mC]*dT*dG*dT*dG*dA*dT*k[5mC]*k[5mC]*eA) [compound 548557] | 400 | 5 | 47 | 82 | 95 | – | – | 81 | – |
| 548558 (antisense eA*eA*k[5mC]*dA*dT*dT*dG*dT*dG*dT*dA*dG*d[5mC]*kT*kG*e[5mC]) [compound 548558] | – | 53 | 61 | 78 | 95 | – | – | 75 | – |
| 548570 (eA*eT*kG*d[5mC]*d[5mC]*dT*dT*dG*dT*dG*d[5mC]*d[5mC]*dT*kA*kT*eT; antisense) [compound 548570] | 400 | 20 | 40 | 70 | 94 | – | – | 74 | – |
| 548583 (eG*eG*kG*dA*dA*dT*dT*dT*dA*dT*dG*d[5mC]*dT*kG*k[5mC]*e[5mC]; antisense) [compound 548583] | 200 | 43 | 46 | 93 | 88 | – | – | 79 | – |
| 548655 (antisense e[5mC]*e[5mC]*k[5mC]*dG*dA*dG*dG*dT*d[5mC]*dA*d[5mC]*dA*dT*kA*kA*eT) [compound 548655] | > 3000 | 0 | 0 | 8 | 33 | – | – | – | 56 |
| 548667 (antisense eT*eG*kG*d[5mC]*dA*dA*dG*d[5mC]*dT*dA*d[5mC]*d[5mC]*dT*kT*k[5mC]*eT) [compound 548667] | 700 | 0 | 37 | 73 | 86 | – | – | – | 51 |
| 548668 (antisense eG*eG*kG*dA*dG*d[5mC]*dT*dT*dT*d[5mC]*dA*dT*dG*kG*k[5mC]*eT) [compound 548668] | 700 | 10 | 30 | 61 | 84 | – | – | – | 68 |
